Measured values taken from US9409952B2, “Peptide-compound cyclization method” (Chugai Seiyaku Kabushiki Kaisha, priority 2011, dated 2016).
Where two headings read alike, the source gives them in different places. Starred links: 1 amine or outer side, 2 acyl side, 3 side chain; linkers in the order of their positions; H or OH if unused. Positions of bridges follow the written chain, without caps; N, C: chain ends. Non-standard residues stand in square brackets, D forms with d. Residues, ends and D or L forms follow the SMILES beside them. ξ: configuration not given here. *: point of attachment. NMeF = CN[C@@H](Cc1ccccc1)C(=O)O; NMeGABA = CN(CCCC(=O)[*:2])[*:1]; NMeI = CC[C@H](C)[C@H](NC)C(=O)O; NMeβAla = CN(CCC(=O)[*:2])[*:1]; NMeξIle = CC[C@H](C)C(NC)C(=O)O; NMeL = CN[C@@H](CC(C)C)C(=O)O; NMeV = CN[C@H](C(=O)O)C(C)C; NMeA = CN[C@@H](C)C(=O)O; Piperidide = C1CCN(*)CC1; dNMeA = CN[C@H](C)C(=O)O; β3hA = C[C@H](N)CC(=O)O; NPrGly = CCCNCC(=O)O; Sar = CNCC(=O)O; tBu = CC(C)(C)*

Experiments:
[1] = Metabolic stability in human hepatic microsome; type: in vitro ADME; details: microsomes
[2] = PAMPA (parallel artificial membrane permeability assay); type: in vitro ADME; details: PAMPA
How it was run: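 Artificial membrane was 10% (w/v) egg lecithin plus 0.5% (w/v) cholesterol in dodecane on a PVDF filter. A 10 mM DMSO stock was added at 0.5% (v/v) to donor buffer (50 mM MOPSO, pH 6.5, 5.0% glycocholic acid). After 18 h at 37 °C, LC/MS or LC/UV gave donor and acceptor levels for Pe.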

[3] = pH 7.4, human hepatic microsome, NADPH(+), read-out: CL NADPH(+)
[4] = membrane permeation rate (Pe), 50 mM MOPSO buffer pH 6.5 with 5.0% glycocholic acid, 37° C., 18 hours, read-out: iPAMPA Pe

Compound	microsomal CLint at 1 uM ([1]; human, pH 7.4, CL NADPH(+)) [µL/min/mg]	Papp at 18 hours, 50 µM ([2]; pH 6.5) [×10⁻⁶ cm/s]	microsomal CLint at 1 uM [1, 3] [µL/min/mg]	Papp at 18 hours, 50 µM [2, 4] [×10⁻⁶ cm/s]
CC(C)C[C@@H]1NC(=O)[C@H](C)N(C)C(=O)CNC(=O)[C@H](C(C)C)N(C)C(=O)[C@H](Cc2ccccc2)NC(=O)[C@H]([C@@H](C)O)NC(=O)[C@H](CC(C)C)N(C)C(=O)CN(C)C(=O)C[C@@H](C(=O)N(C)[C@@H](Cc2ccccc2)C(=O)N[C@@H](C)C(=O)N2CCCCC2)NC(=O)[C@H](C)N(C)C(=O)[C@H](CC(C)C)N(C)C1=O [DP-285] ([Sar][NMeL]TF[NMeV]G[NMeA]L[NMeL][NMeA]D[NMeF]A-Piperidide; lactam N-11)	69	16	–	–
CC[C@H](C)[C@H]1C(=O)N[C@H](C(=O)N2CCCCC2)CC(=O)N(C)[C@H](C)C(=O)N[C@@H](CC(C)C)C(=O)N(C)[C@@H](Cc2ccccc2)C(=O)N(C)[C@@H](CC(C)C)C(=O)NCC(=O)N(C)[C@@H](C(C)C)C(=O)N(C)[C@@H](Cc2ccccc2)C(=O)N(C)[C@@H](C)C(=O)N[C@@H]([C@@H](C)O)C(=O)N(C)[C@@H](C)C(=O)N1C [DP-94] ([dNMeA]L[NMeF][NMeL]G[NMeV][NMeF][NMeA]T[NMeA][NMeI]D-Piperidide; lactam N-12)	17	28	–	–
CC[C@H](C)[C@H](NC(=O)[C@H](CC(C)C)NC(=O)[C@@H]1CC(=O)N[C@@H](C)C(=O)N[C@@H](CC(C)C)C(=O)N[C@@H](Cc2ccccc2)C(=O)N[C@@H](CC(C)C)C(=O)N[C@@H]([C@@H](C)O)C(=O)N2CCC[C@H]2C(=O)N(C)CC(=O)N[C@@H](Cc2ccccc2)C(=O)N[C@@H](C(C)C)C(=O)N(C)[C@@H](C)C(=O)N1)C(=O)N1CCCCC1 [DP-41] (ALFLTP[Sar]FV[NMeA]DLI-Piperidide; lactam N-11)	72	11	–	–
CC[C@H](C)[C@@H]1NC(=O)[C@H](C)N(C)C(=O)[C@H]([C@@H](C)O)NC(=O)[C@H](Cc2ccccc2)N(C)C(=O)[C@H](CC(C)C)N(C)C(=O)CCCN(C)C(=O)C[C@@H](C(=O)N(C)[C@@H](Cc2ccccc2)C(=O)N[C@@H](C)C(=O)N2CCCCC2)NC(=O)[C@H](C(C)C)N(C)C(=O)[C@H](CC(C)C)N(C)C1=O [DP-384] ([NMeGABA][NMeL][NMeF]T[NMeA]I[NMeL][NMeV]D[NMeF]A-Piperidide; lactam N-9)	–	–	214	26
CC(C)C[C@H]1C(=O)N[C@@H](COC(C)(C)C)C(=O)N[C@H](C(=O)N2CCCCC2)CC(=O)N(C)CCC(=O)N(C)[C@@H](C)C(=O)N(C)[C@@H](Cc2ccccc2)C(=O)N(C)[C@@H](CC(C)C)C(=O)N[C@@H]([C@@H](C)O)C(=O)N(C)[C@@H](C)C(=O)N1C [DP-269] ([NMeβAla][NMeA][NMeF][NMeL]T[NMeA][NMeL]S(tBu)D-Piperidide; lactam N-9)	–	–	58	11
CC[C@H](C)[C@H]1C(=O)N[C@@H](Cc2ccccc2)C(=O)N[C@@H]([C@@H](C)O)C(=O)N2CCC[C@H]2C(=O)N[C@@H](Cc2ccccc2)C(=O)N[C@H](C(=O)N2CCCCC2)CC(=O)N(C)CCC(=O)N(C)[C@@H](CC(C)C)C(=O)N(C)[C@@H](CC(C)C)C(=O)N[C@@H](CC(C)C)C(=O)NCC(=O)N1C [DP-239] ([NMeβAla][NMeL][NMeL]LG[NMeI]FTPFD-Piperidide; lactam N-11)	–	–	109	25
C=C1CCC(=O)NCC(=O)N(C)[C@@H](C)C(=O)N[C@@H](CC(C)C)C(=O)N[C@@H](C(C)C)C(=O)N(C)[C@@H](CC(C)C)C(=O)N[C@@H](Cc2ccccc2)C(=O)N(C)[C@@H](Cc2ccccc2)C(=O)N[C@@H]([C@@H](C)CC)C(=O)N(C)[C@@H](C)C(=O)N[C@@H](CC(C)C)C(=O)N[C@@H]([C@@H](C)O)C(=O)N[C@H](C(=O)N2CCCCC2)Cc2cccc1c2 [DP-889]	–	–	89	3.6
CC(C)C[C@@H]1NC(=O)[C@H](CC(C)C)N(C)C(=O)[C@H](C(C)C)N(C)C(=O)[C@H](C)NC(=O)CN(C)C(=O)[C@H](Cc2ccccc2)NC(=O)[C@H]([C@@H](C)O)NC(=O)[C@H](CC(C)C)N(C)C(=O)[C@H](C)N(C)C(=O)C[C@@H](C(=O)N2CCCCC2)NC(=O)[C@H](CC(C)C)N(C)C1=O [DP-479] ([NMeA][NMeL]TF[Sar]A[NMeV][NMeL]L[NMeL]D-Piperidide; lactam N-11)	–	–	183	46
CC[C@H](C)C1C(=O)N[C@H](C(=O)N2CCCCC2)CC(=O)N(C)CC(=O)N(C)CC(=O)N[C@@H]([C@@H](C)O)C(=O)N(C)[C@@H](Cc2ccccc2)C(=O)N(C)[C@@H](CC(C)C)C(=O)N[C@@H](COC(C)(C)C)C(=O)N(C)[C@@H](CC(C)C)C(=O)N1C (stereo partly drawn) [DP-60] ([Sar][Sar]T[NMeF][NMeL]S(tBu)[NMeL][NMeξIle]D-Piperidide; lactam N-9)	145	42	–	–
CC[C@H](C)[C@@H]1NC(=O)[C@@H](C(C)C)NC(=O)C[C@@H](C(=O)N2CCCCC2)NC(=O)[C@H](C)N(C)C(=O)[C@H](CC(C)C)N(C)C(=O)CN(C)C(=O)[C@H]([C@@H](C)O)NC(=O)[C@H](Cc2ccccc2)N(C)C(=O)[C@H](CC(C)C)N(C)C(=O)[C@H](C)NC(=O)[C@H](C(C)C)N(C)C(=O)[C@H](Cc2ccccc2)N(C)C1=O [DP-132] ([dV]I[NMeF][NMeV]A[NMeL][NMeF]T[Sar][NMeL][NMeA]D-Piperidide; lactam N-12)	–	–	37	39
CC[C@H](C)[C@H]1C(=O)N[C@@H](Cc2ccccc2)C(=O)N[C@@H](Cc2ccccc2)C(=O)N2CCC[C@H]2C(=O)N[C@@H]([C@@H](C)O)C(=O)N(C)[C@@H](CC(C)C)C(=O)N[C@H](C(=O)N2CCCCC2)CC(=O)N[C@@H](C)C(=O)N[C@@H](C)C(=O)N(C)[C@@H](CC(C)C)C(=O)N[C@@H](CC(C)C)C(=O)N1C [DP-29] (AA[NMeL]L[NMeI]FFPT[NMeL]D-Piperidide; lactam N-11)	158	31	–	–
CC(C)C[C@H]1C(=O)N[C@@H]([C@@H](C)O)C(=O)N(C)[C@@H](Cc2ccccc2)C(=O)N(C)[C@@H](CC(C)C)C(=O)NCC(=O)N(C)[C@@H](C(C)C)C(=O)N[C@@H](Cc2ccccc2)C(=O)N[C@H](C(=O)N(C)[C@@H](Cc2ccccc2)C(=O)N[C@@H](C)C(=O)N2CCCCC2)CC(=O)N(C)CCC(=O)N[C@@H](C(C)C)C(=O)N1C [DP-193] ([NMeβAla]V[NMeL]T[NMeF][NMeL]G[NMeV]FD[NMeF]A-Piperidide; lactam N-10)	–	–	124	53
CC[C@H](C)[C@@H]1NC(=O)[C@H](CC(C)C)N(C)C(=O)CN(C)C(=O)[C@H]([C@@H](C)O)NC(=O)[C@H](C)N(C)C(=O)C[C@@H](C(=O)N[C@@H](C)C(=O)N2CCC[C@H]2C(=O)N[C@@H](C)C(=O)N2CCCCC2)NC(=O)[C@H](CC(C)C)N(C)C(=O)[C@H](Cc2ccccc2)N(C)C(=O)[C@H](CC(C)C)N(C)C1=O [DP-662] ([NMeA]T[Sar][NMeL]I[NMeL][NMeF][NMeL]DAPA-Piperidide; lactam N-9)	–	–	101	18
CC(C)C[C@@H]1NC(=O)[C@H](CC(C)C)N(C)C(=O)[C@H](C)N(C)C(=O)[C@H](Cc2ccccc2)NC(=O)[C@H](C(C)C)N(C)C(=O)CNC(=O)[C@H]([C@@H](C)O)NC(=O)[C@H](C)N(C)C(=O)[C@H](CC(C)C)N(C)C(=O)[C@H](C)N(C)C(=O)C[C@@H](C(=O)N(C)[C@@H](Cc2ccccc2)C(=O)N[C@@H](C)C(=O)N2CCCCC2)NC1=O [DP-181] ([NMeA][NMeL][NMeA]TG[NMeV]F[NMeA][NMeL]LD[NMeF]A-Piperidide; lactam N-11)	–	–	13	18
CC(C)C[C@H](NC(=O)CN(C)C(=O)[C@@H]1CC(=O)N[C@H](C)C(=O)N[C@@H](C(C)C)C(=O)N(C)[C@@H](Cc2ccccc2)C(=O)N(C)[C@@H](CC(C)C)C(=O)N(C)[C@@H](C)C(=O)N[C@@H]([C@@H](C)O)C(=O)N[C@@H](Cc2ccccc2)C(=O)N1)C(=O)N1CCCCC1 [DP-571] ([dA]V[NMeF][NMeL][NMeA]TFD[Sar]L-Piperidide; lactam N-8)	–	–	62	23
CC(C)C[C@@H]1NC(=O)[C@H](C)N(C)C(=O)[C@H]([C@@H](C)O)NC(=O)[C@H](Cc2ccccc2)N(C)C(=O)CNC(=O)[C@H](C(C)C)N(C)C(=O)[C@H](C(C)C)NC(=O)[C@H](C)N(C)C(=O)[C@H](Cc2ccccc2)NC(=O)[C@H](C)N(C)C(=O)[C@@H](C)N(C)C(=O)C[C@H](C)NC1=O [DP-753] (cyclo(F[NMeA]V[NMeV]G[NMeF]T[NMeA]L[β3hA][dNMeA][NMeA]))	–	–	35	10
CCCN1CC(=O)N(C)[C@@H](Cc2ccccc2)C(=O)N[C@@H](C)C(=O)N(C)[C@@H](Cc2ccccc2)C(=O)N(C)[C@@H](CC(C)C)C(=O)N(C)[C@@H]([C@@H](C)CC)C(=O)N(C)[C@@H](CC(C)C)C(=O)N[C@H](C(=O)N2CCCCC2)CC(=O)N(C)CC(=O)N[C@@H](CC(C)C)C(=O)N[C@@H]([C@@H](C)O)C1=O [DP-545] ([Sar]LT[NPrGly][NMeF]A[NMeF][NMeL][NMeI][NMeL]D-Piperidide; lactam N-11)	–	–	36	40
CC[C@H](C)[C@H]1C(=O)N[C@@H](C)C(=O)N[C@@H](Cc2ccccc2)C(=O)N(C)[C@@H](Cc2ccccc2)C(=O)N[C@@H]([C@@H](C)O)C(=O)N(C)[C@@H](C)C(=O)N[C@@H](CC(C)C)C(=O)N[C@H](C(=O)N2CCCCC2)CC(=O)N[C@H](C(C)C)C(=O)N(C)[C@@H](C(C)C)C(=O)NCC(=O)N(C)[C@@H](CC(C)C)C(=O)N1C [DP-217] ([dV][NMeV]G[NMeL][NMeI]AF[NMeF]T[NMeA]LD-Piperidide; lactam N-12)	–	–	37	38
